Like-named read-outs stand apart in the source and are kept apart here.
What was measured:
[1] = biological target: T1, human Orexin-2 receptor (Homo sapiens, UniProt O43614); experiment: 3H-EMPA radioligand binding assay; conditions: 3H-EMPA displacement, membranes of HEK293 cells transfected with human Orexin-2 receptor; KI by Cheng-Prussoff; read-out: OX2 pKi ave (converted)
T1 construct: expressed in transfected cells; host or cells: HEK293 cells (transient transfection, Genejuice); membranes
T1 sequence (O43614 1-444): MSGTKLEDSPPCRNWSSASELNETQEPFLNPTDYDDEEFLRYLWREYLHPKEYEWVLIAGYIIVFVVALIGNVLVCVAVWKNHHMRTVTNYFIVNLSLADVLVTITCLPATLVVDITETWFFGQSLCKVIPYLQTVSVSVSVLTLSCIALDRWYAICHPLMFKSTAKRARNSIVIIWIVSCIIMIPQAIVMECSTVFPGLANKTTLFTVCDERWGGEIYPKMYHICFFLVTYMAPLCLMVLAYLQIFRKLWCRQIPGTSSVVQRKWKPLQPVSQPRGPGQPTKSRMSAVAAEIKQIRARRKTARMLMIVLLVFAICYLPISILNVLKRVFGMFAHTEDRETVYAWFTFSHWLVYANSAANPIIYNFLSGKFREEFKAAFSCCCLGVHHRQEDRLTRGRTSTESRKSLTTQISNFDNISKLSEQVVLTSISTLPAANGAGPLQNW
Outline: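 Membranes from HEK293 cells transiently transfected with human orexin-2 receptor cDNA, assayed with [3H]EMPA. Bound ligand collected on PEI-treated GF/B filters and counted by scintillation; IC50 from inhibition curves, Ki by Cheng-Prusoff.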

[2] = biological target: T2, cortical orexin-2 receptors (Rattus norvegicus, UniProt P56719); experiment: Ex vivo orexin-2 receptor occupancy; assay type: in vivo; conditions: for ED50: po
T2 construct: from tissue; host or cells: rat brain cortex sections (Sprague Dawley)
T2 sequence (P56719 1-460): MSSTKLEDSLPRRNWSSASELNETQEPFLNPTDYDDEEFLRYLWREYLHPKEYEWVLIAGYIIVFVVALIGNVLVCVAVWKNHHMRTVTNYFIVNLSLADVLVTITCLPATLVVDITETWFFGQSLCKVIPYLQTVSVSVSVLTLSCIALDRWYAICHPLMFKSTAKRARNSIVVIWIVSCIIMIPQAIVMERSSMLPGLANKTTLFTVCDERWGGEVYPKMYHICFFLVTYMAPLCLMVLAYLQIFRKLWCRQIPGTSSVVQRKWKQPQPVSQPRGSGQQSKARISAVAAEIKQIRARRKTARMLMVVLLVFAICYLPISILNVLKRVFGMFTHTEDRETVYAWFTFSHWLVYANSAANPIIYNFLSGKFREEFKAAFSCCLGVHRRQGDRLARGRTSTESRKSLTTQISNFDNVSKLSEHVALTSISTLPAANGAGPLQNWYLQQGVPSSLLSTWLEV
Protocol: Ex Vivo Orexin-2 Receptor Occupancy
Male Sprague Dawley rats were dosed orally with either vehicle, example 145, (0.3-10 mg/kg po) or example 100, (1 mg/kg, po). Vehicle for example 145 was 90% PEG400/10% Tween-80; for example 100 10% DMAC+10% Solutol+80% (10% HPβCD in water). 1 h post-dose, animals were sacrificed and brains removed. A coronal block containing the cortex was rapidly frozen in isopentane for sectioning and autoradiography. 20 μm thick sections were mounted onto slides and incubated with [^3H]EMPA (total binding) or [^3H]EMPA and 1 μM TCS OX2 29 (non-specific binding) for 20 min at rt. Binding was terminated by aspiration and washing with ice-cold assay buffer and allowed to air dry. Levels of bound radioactivity in the sections were determined using a beta imager over a 16 h period. Occupancy was determined as mean specific binding with the vehicle treated control taken as 100%.

[3] = tested on: rat CT18 sleep model; experiment: Rat telemetered sleep study (rat CT18 sleep model); assay type: in vivo; conditions: male CD rats
Protocol: Rat Telemetered Sleep Study
Example 100 was assessed for activity in a rat CT18 sleep model. Adult male CD rats (250-300 g) were implanted with telemetric probes fixed to the skull to record cortical electroencephalogram (EEG), and with telemetric probes fixed to the skeletal muscles of the neck to record electromyogram (neck EMG), and allowed to recover for 3 weeks to re-establish normal sleep patterns. Rats were administered with example 100 (3, 10 and 30 mg/kg, po) or vehicle (80% v/v PEG400, 20% v/v Cremophor EL, 2 ml/kg) at Circadian Time (CT) 18, six hours after lights off. EEG and neck EMG traces were recorded for 5 hours after treatment and analysed to determine time spent awake and in NREM sleep and REM sleep.

[4] = tested on: preclinical sleep models; conditions: in vivo; cited from earlier work
[5] = tested on: patients with primary insomnia; conditions: Phase II; cited from earlier work
[6] = tested on: primary insomnia patients; conditions: Phase IIb study; cited from earlier work
[7] = 3 mg/kg po at CT18, ANOVA over 3 hours post-treatment

## COc1cc(N2C(=O)N(Cc3c(F)cc(F)cc3F)c3ncccc3S2(=O)=O)cnc1OC [Example 100, 2-(5,6-Dimethoxypyridin-3-yl)-4-(2,4,6-trifluorobenzyl)-2H-pyrido[2,3-e][1,2,4]thiadiazin-3(4H)-one 1,1-dioxide]
[1]
  Ki: 2.45 nM
[2]; rat, inferred from 57% occupancy at 1 mg/kg, read-out: ED50 value of orexin-2 receptor occupancy (suggested from single dose)
  ED50: < 1 mg/kg
[2]; rat, male Sprague Dawley rats, 1 mg/kg po, 1 h post-dose
  receptor occupancy at 1 mg/kg: 57%
[3]; [7]
  NREM sleep: statistically significant increases
  REM sleep: statistically significant increases
  time spent awake: statistically significant decrease

## COc1cc(N2C(=O)N(Cc3c(F)cc(F)cc3F)c3ccccc3S2(=O)=O)cnc1OC [Example 145, 2-(5,6-Dimethoxypyridin-3-yl)-4-(2,4,6-trifluorobenzyl)-2H-1,2,4-benzothiadiazin-3(4H)-one 1,1-dioxide]
[1]
  Ki: 4.68 nM
[2]; male Sprague Dawley rats, 0.3-10 mg/kg po, 1 h post-dose
  occupancy of cortical orexin-2 receptors, dose dependence: dose dependent manner
[2]; rat, male Sprague Dawley rats, 0.3-10 mg/kg, 1 h post-dose, estimated, read-out: ED50 of cortical orexin-2 receptor occupancy
  ED50: 5.8 mg/kg

## COc1cc(N2C(=O)N(Cc3c(F)cc(F)cc3Cl)c3ncccc3S2(=O)=O)cc(OC)n1 [Example 180, 4-(2-Chloro-4,6-difluorobenzyl)-2-(2,6-dimethoxypyridin-4-yl)-2H-pyrido[2,3-e][1,2,4]thiadiazin-3(4H)-one 1,1-dioxide]
[1]
  Ki: 2.04 nM

## CNc1cc(N2C(=O)N(Cc3c(F)cc(OC)cc3F)c3ccccc3S2(=O)=O)cnc1OC [Example 181, 4-(2,6-difluoro-4-methoxybenzyl)-2-[6-methoxy-5-(methylamino)pyridin-3-yl]-2H-1,2,4-benzothiadiazin-3(4H)-one 1,1-dioxide]
[1]
  Ki: 1.62 nM

## COc1cc(F)c(CN2C(=O)N(c3ccc4ncsc4c3)S(=O)(=O)c3cccnc32)c(F)c1 [Example 182, 2-(1,3-Benzothiazol-6-yl)-4-(2,6-difluoro-4-methoxybenzyl)-2H-pyrido[2,3-e][1,2,4]thiadiazin-3(4H)-one 1,1-dioxide]
[1]
  Ki: 4.47 nM

## COc1cc(OC)nc(N2C(=O)N(Cc3c(F)cc(OC)cc3F)c3ccccc3S2(=O)=O)c1 [Example 183, 4-(2,6-difluoro-4-methoxybenzyl)-2-(4,6-dimethoxypyridin-2-yl)-2H-1,2,4-benzothiadiazin-3(4H)-one 1,1-dioxide]
[1]
  Ki: 2.75 nM

## CNc1ncc(N2C(=O)N(Cc3c(F)cc(OC)cc3F)c3ncccc3S2(=O)=O)cc1C [Example 184, 4-(2,6-Difluoro-4-methoxybenzyl)-2-[5-methyl-6-(methylamino)pyridin-3-yl]-2H-pyrido[2,3-e][1,2,4]thiadiazin-3(4H)-one 1,1-dioxide]
[1]
  Ki: 8.51 nM

## COc1cc(N2C(=O)N(Cc3c(F)cc(F)cc3Cl)c3ncccc3S2(=O)=O)cnc1OC [Example 185, 4-(2-Chloro-4,6-difluorobenzyl)-2-(5,6-dimethoxypyridin-3-yl)-2H-pyrido[2,3-e][1,2,4]thiadiazin-3(4H)-one 1,1-dioxide]
[1]
  Ki: 4.17 nM

## CNc1cc(N2C(=O)N(Cc3c(F)cc(OC)cc3F)c3ncccc3S2(=O)=O)cnc1OC [Example 186, 4-(2,6-Difluoro-4-methoxybenzyl)-2-[6-methoxy-5-(methylamino)pyridin-3-yl]-2H-pyrido[2,3-e][1,2,4]thiadiazin-3(4H)-one 1,1-dioxide]
[1]
  Ki: 1.26 nM

## Cc1ccc(-c2ncccn2)c(C(=O)N2C[C@H](COc3ccc(F)cn3)CC[C@H]2C)c1 [MK-6096]
[4]
  efficacy in preclinical sleep models: shows efficacy

## CNC(=O)[C@@H](c1ccccc1)N1CCc2cc(OC)c(OC)cc2[C@@H]1CCc1ccc(C(F)(F)F)cc1 [almorexant]
[5]
  sleep efficiency: dose-dependently increased

## Cc1ccc(-n2nccn2)c(C(=O)N2CCN(c3nc4cc(Cl)ccc4o3)CC[C@H]2C)c1 [suvorexant]
[6]
  sleep efficiency: increased

## Cc1ccc(-c2nc3ccc(C)cn3c2CC(=O)N(C)C)cc1 [zolpidem, reference compound]
[3]; positive control, CT18
  NREM latency: decrease
  NREM sleep: increase
  time spent awake: decrease

From patent US10316028B2, “Orexin receptor antagonists” (Heptares Therapeutics Limited, priority 2012, dated 2019)
